Assay results taken from patent US11472811B2, “Pyrazolotriazolopyrimidine derivatives as A2A receptor antagonist” (BEIGENE, LTD., priority 2018, dated 2022).

These molecules were tested against human A2A receptor (A2AR) (Homo sapiens (Human), UniProt P29274) (assay: Luciferase reporter assay (HEK293-A2AR-luc2p/CRE/Hygro cells)). Conditions: 3 nM CGS21680, 5 h incubation.
Format: cell-based
In short: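 Antagonism was scored as inhibition of CRE-luciferase signal driven by 3 nM CGS21680 (=100%) during a 5 h treatment with compound at 0.1–10000 nM. The line was HEK293 stably carrying human A2AR and luc2P/CRE, preincubated 18 h in 1% FBS containing 1 U/mL ADA. IC50 came from the dose-response curve.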

Chain of human A2A receptor (A2AR) (P29274 whole entry): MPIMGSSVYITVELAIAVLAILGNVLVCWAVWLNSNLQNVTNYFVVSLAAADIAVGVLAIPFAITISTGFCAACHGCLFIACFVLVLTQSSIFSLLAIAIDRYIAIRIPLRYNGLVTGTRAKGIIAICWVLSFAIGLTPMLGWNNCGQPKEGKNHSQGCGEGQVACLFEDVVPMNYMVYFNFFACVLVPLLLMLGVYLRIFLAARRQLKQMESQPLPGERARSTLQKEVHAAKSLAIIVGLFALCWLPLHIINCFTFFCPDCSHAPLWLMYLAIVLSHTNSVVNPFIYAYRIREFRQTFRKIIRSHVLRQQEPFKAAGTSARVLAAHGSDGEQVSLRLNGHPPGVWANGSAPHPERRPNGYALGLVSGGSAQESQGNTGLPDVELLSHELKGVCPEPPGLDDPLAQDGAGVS

IC50 [nM]	Compound
7.5	C[C@]1(O)CC[C@H](NC(=O)C(c2ccccc2)n2ncc3c2nc(N)n2nc(-c4ccco4)nc32)CC1 (stereo partly drawn) [Example 96, 2-(5-amino-2-(furan-2-yl)-7H-pyrazolo[4,3-e][1,2,4]triazolo[1,5-c]pyrimidin-7-yl)-(cis)-N-(4-hydroxy-4-methylcyclohexyl)-2-phenylacetamide]
10.4	CC(C(=O)NCC1CCOCC1)(c1ccccc1)n1ncc2c1nc(N)n1nc(-c3ccco3)nc21 (centres unmarked) [Example 97, 2-(5-amino-2-(furan-2-yl)-7H-pyrazolo[4,3-e][1,2,4]triazolo[1,5-c]pyrimidin-7-yl)-2-phenyl-N-((tetrahydro-2H-pyran-4-yl)methyl)propenamide]
19.2	CC(C(=O)NC1CCOCC1)(c1ccccc1)n1ncc2c1nc(N)n1nc(-c3ccco3)nc21 (centres unmarked) [Example 98, 2-(5-amino-2-(furan-2-yl)-7H-pyrazolo[4,3-e][1,2,4]triazolo[1,5-c]pyrimidin-7-yl)-2-phenyl-N-(tetrahydro-2H-pyran-4-yl)propanamide]
12	CC(C(=O)NC1CCCC(O)C1)(c1ccccc1)n1ncc2c1nc(N)n1nc(-c3ccco3)nc21 (centres unmarked) [Example 99, 2-(5-amino-2-(furan-2-yl)-7H-pyrazolo[4,3-e][1,2,4]triazolo[1,5-c]pyrimidin-7-yl)-N-(3-hydroxycyclohexyl)-2-phenylpropanamide]
11.8	CC(C(=O)N[C@@H]1CNC(=O)C1)(c1ccccc1)n1ncc2c1nc(N)n1nc(-c3ccco3)nc21 (stereo partly drawn) [Example 100, 2-(5-amino-2-(furan-2-yl)-7H-pyrazolo[4,3-e][1,2,4]triazolo[1,5-c]pyrimidin-7-yl)-N—((S)-5-oxopyrrolidin-3-yl)-2-phenylpropanamide]
35.1	CC(C(=O)NC1CCNCC1)(c1ccccc1)n1ncc2c1nc(N)n1nc(-c3ccco3)nc21 (centres unmarked) [Example 101, 2-(5-amino-2-(furan-2-yl)-7H-pyrazolo[4,3-e][1,2,4]triazolo[1,5-c]pyrimidin-7-yl)-2-phenyl-N-(piperidin-4-yl)propanamide]
10.7	C[C@](C(=O)N[C@H]1C[C@H](O)C1)(c1ccccc1)n1ncc2c1nc(N)n1nc(-c3ccco3)nc21 [Example 102B, (R)-2-(5-amino-2-(furan-2-yl)-7H-pyrazolo[4,3-e][1,2,4]triazolo[1,5-c]pyrimidin-7-yl)-(trans)-N-(3-hydroxycyclobutyl)-2-phenylpropanamide]
6.1	CCC(C(=O)NCC1(O)COC1)(c1ccccc1)n1ncc2c1nc(N)n1nc(-c3ccco3)nc21 (centres unmarked) [Example 103, 2-(5-amino-2-(furan-2-yl)-7H-pyrazolo[4,3-e][1,2,4]triazolo[1,5-c]pyrimidin-7-yl)-N-((3-hydroxyoxetan-3-yl)methyl)-2-phenylbutanamide]
18.2	CC(C(=O)N[C@H]1C[C@@H](O)C1)(c1ccccc1)n1ncc2c1nc(N)n1nc(-c3ccco3)nc21 (some centres unmarked) [Example 104, 2-(5-amino-2-(furan-2-yl)-7H-pyrazolo[4,3-e][1,2,4]triazolo[1,5-c]pyrimidin-7-yl)-N-((1s,3s)-3-hydroxycyclobutyl)-2-phenylpropanamide]
9.1	C[C@](C(=O)N[C@H]1C[C@@H](O)C1)(c1ccccc1)n1ncc2c1nc(N)n1nc(-c3ccco3)nc21 [Example 104B, (R)-2-(5-amino-2-(furan-2-yl)-7H-pyrazolo[4,3-e][1,2,4]triazolo[1,5-c]pyrimidin-7-yl)-(cis)-N-(3-hydroxycyclobutyl)-2-phenylpropanamide]
10.7	CC(C(=O)N[C@H]1C[C@@](C)(O)C1)(c1ccccc1)n1ncc2c1nc(N)n1nc(-c3ccco3)nc21 (stereo partly drawn) [Example 105, 2-(5-amino-2-(furan-2-yl)-7H-pyrazolo[4,3-e][1,2,4]triazolo[1,5-c]pyrimidin-7-yl)-N-((1S,3S)-3-hydroxy-3-methylcyclobutyl)-2-phenylpropanamide]
